Source: patent US20240139376A1, “RECONSTITUTION OF EXTRACELLULAR MATRIXES FOR MUSCULOSKELETAL JOINT TISSUE REPAIR USING BIOMIMETIC BIOLOGIC AND SYNTHETIC FACTORS” (Rhode Island Hospital, priority 2021, published 2024)

Key:
[1] = tested on: bone marrow derived mesenchymal stem cells (BM-MSCs); experiment: RT-qPCR of chondrogenic and hypertrophy markers after KGN treatment, BM-MSCs; format: cell-based, Human
Protocol: (§1) 1 μM KGN enhances chondrogenesis of CPCs but not MSCs. The following materials and methods were used to generate the data described herein. Human CPCs and bone marrow derived mesenchymal stem cells (BM-MSCs) were cultured at 40,000 cells/well for 3 days or 22,000 cells/well for 10 days on 12-well plates. Cells were either untreated or treated with 500 nM, 1 μM, 10 μM, or 100 μM KGN (Sigma-Aldrich) at N=5 for each treatment group. At experimental endpoint following KGN treatment, RT-qPCR was used the measure expression of chondrogenic markers SRY-Box Transcription Factor 9 (SOX9), collagen 2 (COL2), collagen 1 (COL1) (FIG. 3A) as well as hypertrophy and catabolism markers, associated with development of osteoarthritis, collagen 10 (COL10), matrix metallopeptidase 13 (MMP13), Runt-related transcription factor 2 (RUNX2) (FIG. 3B).
(§2) Human CPCs and BM-MSCs were cultured at 40,000 cells/well for 3 days or 22,000 cells/well for 10 days on 12-well plates. Cells were either untreated or treated with 500 nM, 1 uM, 10 uM, or 100 uM KGN (Sigma-Aldrich) at N=5 for each treatment group. At experimental endpoint following KGN treatment, RT-qPCR was used the measure expression of chondrogenic markers SOX9, COL2, COL1 as well as hypertrophy and catabolism markers COL10, MMP13, RUNX2. CPCs and BM-MSCs were cultured again at 22,000 cell/swell for 10 days in 12-well plates and again treated with KGN. At 5 and 10 days of treatment, cell culture supernatant was collected, with cell media and KGN replenished at the 5-day timepoint (N=3). Supernatants were used to perform ELISA for measuring MMP13 protein. At day 10, cell culture plates were stained for Alcian Blue (N=4). The color was extracted and the absorbances were quantified via spectrophotometry, to assess acidic glycosaminoglycans (GAG) and hyaluronan (HA). In analysis, within and between group differences were assessed through 2-way ANOVA with Dunnett's multiple comparisons test. Significant differences are signified by p-values≤0.05.

Human CPCs [2] = experiment: Alcian Blue staining (GAG and HA), CPCs; format: cell-based; conditions: 1 μM KGN, 10 days, p<0.05
Protocol: (§3) CPCs and BM-MSCs were cultured again at 22,000 cell/swell for 10 days in 12-well plates and again treated with KGN. At 5 and 10 days of treatment, cell culture supernatant was collected, with cell media and KGN replenished at the 5-day timepoint (N=3). Supernatants were used to perform ELISA for measuring MMP13 protein. At day 10, cell culture plates were stained for Alcian Blue (N=4). The color was extracted and the absorbances were quantified via spectrophotometry, to assess acidic glycosaminoglycans (GAG) and hyaluronan (HA). In analysis, within and between group differences were assessed through 2-way ANOVA with Dunnett's multiple comparisons test. Significant differences are signified by p-values ≤0.05.
(§4) Human CPCs and BM-MSCs were cultured at 40,000 cells/well for 3 days or 22,000 cells/well for 10 days on 12-well plates. Cells were either untreated or treated with 500 nM, 1 uM, 10 uM, or 100 uM KGN (Sigma-Aldrich) at N=5 for each treatment group. […] The color was extracted and the absorbances were quantified via spectrophotometry, to assess acidic glycosaminoglycans (GAG) and hyaluronan (HA). In analysis, within and between group differences were assessed through 2-way ANOVA with Dunnett's multiple comparisons test. […]

BM-MSCs [3] = experiment: ELISA for MMP13 protein in cell culture supernatant, BM-MSCs; format: cell-based, Human
Protocol: as §3, §2

BM-MSCs [4] = experiment: Alcian Blue staining (GAG and HA), BM-MSCs; format: cell-based, Human; conditions: 10 days
Protocol: as §3, §4

Human CPCs [5] = experiment: RT-qPCR of chondrogenic and hypertrophy markers after KGN treatment, CPCs; format: cell-based
Protocol: as §1, §2

Human CPCs [6] = experiment: ELISA for MMP13 protein in cell culture supernatant, CPCs; format: cell-based; conditions: all treatment groups
Protocol: as §3, §4

O=C(O)c1ccccc1C(=O)Nc1ccc(-c2ccccc2)cc1 [KGN, kartogenin]
expression of COL10 ([1]; 100 μM KGN, 10 days, p<0.05): significantly reduced | expression of MMP13 ([1]; 100 μM KGN, 10 days, p<0.05): significantly reduced | expression of COL1 ([1]; KGN): did not increase | expression of COL2 ([1]; KGN): did not increase | expression of SOX9 ([1]; KGN): did not increase | Alcian Blue staining intensity vs untreated (Human CPCs [2]): increased intensity | protein levels of MMP13 (BM-MSCs [3]; 10 μM KGN, 0-5 days, p<0.001): significant decrease | protein levels of MMP13 (BM-MSCs [3]; 10 μM KGN, 5-10 days, p<0.05): significant decrease | protein levels of MMP13 (BM-MSCs [3]; 100 μM KGN, 0-5 days, p<0.0001): significant decrease | protein levels of MMP13 (BM-MSCs [3]; 100 μM KGN, 5-10 days, p<0.0001): significant decrease | Alcian Blue staining intensity vs untreated (BM-MSCs [4]; 10 μM KGN, p<0.05): stained more intensely | Alcian Blue staining intensity vs untreated (BM-MSCs [4]; 100 μM KGN, p<0.0001): stained more intensely | expression of MMP13 (Human CPCs [5]; 1 μM KGN, 3 days): increased | expression of RUNX2 (Human CPCs [5]; 1 μM KGN, 3 days): increased | expression of RUNX2 (Human CPCs [5]; 10 μM KGN, 3 days): increased | expression of RUNX2 (Human CPCs [5]; 100 μM KGN, 3 days): increased | upregulation of COL2 mRNA (Human CPCs [5]; CPCs, 1 μM KGN, 3 days, p<0.0001): 2 fold | upregulation of SOX9 mRNA (Human CPCs [5]; CPCs, 1 μM KGN, 3 days, p<0.05): 2 fold | upregulation of COL2 mRNA (Human CPCs [5]; CPCs, 1 μM KGN, 10 days, p<0.05): maintained | MMP13 protein in supernatant (Human CPCs [6]; 0-5 days KGN treatment): undetectable | MMP13 protein in supernatant (Human CPCs [6]; 6-10 days KGN treatment): undetectable
